*1 amine or outer side, *2 acyl side, *3 side chain or, on linkers, in order; H or OH if unused. Where a SMILES comes first, the peptide text is derived from it. [ ]: non-standard residue; d: D form. The star is where a group is joined. Ac6c = NC1(C(=O)O)CCCCC1; Morpholide = C1CN(*)CCO1; Nle = CCCC[C@H](N)C(=O)O; Cbz = O=C(OCc1ccccc1)*; CO = O=C([*:1])[*:2]
Assays:
Human cathepsin B = molecular target: T1, Human cathepsin B (Homo sapiens, UniProt P07858); test: Measurement of cathepsin B inhibitory activity (Z-Arg-Arg-MCA fluorescent substrate); type: biochemical; details: selectivity ratio B/K
T1 construct: purchased Calbiochem Corp
Description: (§1) Human cathepsin B (Calbiochem Corp.) was used for measurement. Activity was measured based on decomposition of the fluorescent substrate Z-Arg-Arg-MCA (Peptide Institute, Inc.) following the method of Barrett et al.^3). Namely, the decomposition of 20 mM Z-Arg-Arg-MCA by cathepsin B was measured in 100 mM sodium/potassium phosphate, 1 mM EDTA, 8 mM cysteine and 0.005% Brij35 at pH 6.0. The reaction was carried out for 30 minutes at 30° C., and stopped by the addition of 2×10^−5 M Calpeptin. After stopping the reaction, fluorescent intensity was measured at an excitation wavelength of 355 nm and measurement wavelength of 460 nm. Inhibition of cathepsin B by the compounds was examined using the reaction system described above.

Human cathepsin L = molecular target: T2, Human cathepsin L (Homo sapiens, UniProt P07711); test: Measurement of cathepsin L inhibitory activity (Z-Phe-Arg-MCA fluorescent substrate); type: biochemical; details: selectivity ratio L/K
T2 construct: purchased Calbiochem Corp
Description: as §1, with “cathepsin L” for “cathepsin B”, “substrate Z-Phe-Arg-MCA” for “substrate Z-Arg-Arg-MCA”, “[…] Z-Phe-Arg-MCA” for “mM Z-Arg-Arg-MCA”, “mM sodium acetate, 5” for “mM sodium/potassium phosphate, 1”, “EDTA, 4 mM urea,” for “EDTA,”, “pH 5.5.” for “pH 6.0.”

T2 sequence (P07711 114-333): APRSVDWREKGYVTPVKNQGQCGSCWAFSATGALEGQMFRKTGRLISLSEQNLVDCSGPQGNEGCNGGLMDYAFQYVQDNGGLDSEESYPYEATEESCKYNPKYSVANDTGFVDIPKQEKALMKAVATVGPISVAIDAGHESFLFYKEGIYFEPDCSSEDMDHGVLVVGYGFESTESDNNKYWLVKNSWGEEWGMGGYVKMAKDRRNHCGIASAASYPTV

Compound | B/K (ratio of cathepsin B IC50 to cathepsin K IC50) (Human cathepsin B) | L/K (ratio of cathepsin L IC50 to cathepsin K IC50) (Human cathepsin L)
CC(C)[C@@H](C=O)NC(=O)C1(NC(=O)OCc2ccccc2)CCCCC1 [Example 7, N-[[1-[[(Phenylmethoxy)carbonyl]amino]cyclohexyl]carbonyl]-L-valinal] (Cbz-[Ac6c]-Val-aldehyde) | 230 | 400
CCCC[C@@H](C=O)NC(=O)C1(NC(=O)OCc2ccccc2)CCCCC1 [Example 8, N-[[1-[[(Phenylmethoxy)carbonyl]amino]cyclohexyl]carbonyl]-L-norleucinal] (Cbz-[Ac6c]-[Nle]-aldehyde) | 35 | 50
CC(C)[C@@H](C=O)NC(=O)C1(NC(=O)c2ccco2)CCCCC1 [Example 9, N-[[1-[(2-Furanylcarbonyl)amino]cyclohexyl]carbonyl]-L-valinal] | 87 | 370
CCCC[C@@H](C=O)NC(=O)C1(NC(=O)N2CCOCC2)CCCCC1 [Example 10, N-[[1-[(4-Morpholinylcarbonyl)amino]cyclohexyl]carbonyl]-L-norleucinal] ({Morpholide-CO}-[Ac6c]-[Nle]-aldehyde) | 12 | 21
CC(C)C[C@H](NC(=O)OCc1ccccc1)C(=O)N[C@H](C=O)C(C)C [Reference Example 184, N—[N-[(Phenylmethoxy)carbonyl]-L-leucyl]-L-valinal] (Cbz-Leu-Val-aldehyde) | 58 | 74
CCCC[C@@H](C=O)NC(=O)[C@H](CC(C)C)NC(=O)OCc1ccccc1 [Reference Example 185, N—[N-[(Phenylmethoxy)carbonyl]-L-leucyl]-L-norleucinal] | 11 | 15
CCCC[C@@H](C=O)NC(=O)[C@H](CC(C)C)NC(=O)N1CCOCC1 [Reference Example 186, N—[N-(4-Morpholinylcarbonyl)-L-leucyl]-L-norleucinal] | 4.3 | 7.3
CC(C)C[C@H](NC(=O)c1ccco1)C(=O)N[C@H](C=O)C(C)C [Reference Example 187, N—[N-(2-Furanylcarbonyl)-L-leucyl]-L-valinal] | 30 | 35

From patent publication US8957205B2, “Cycloalkane carboxamide derivatives and production process of same” (Seikagaku Corporation, priority 2006, dated 2015)
